Measurements reported in patent publication EP4222493B1, “SCREENING TEST FOR CATSPER MODULATORS” (Westfälische Wilhelms-Universität Münster, priority 2020, dated 2022).

Target: T1, CatSper channel (Homo sapiens, UniProt Q7RTX7+Q86XQ3+Q8NEC5+Q96P56)
T1 construct: endogenous in cells; host or cells: Sperm cells in untreated ejaculate from a healthy volunteer
Assay: CatSper modulation test: sperm motility in a test solution essentially free of free calcium, determined by light microscopy
Format: cell-based
Details: for motility: after about 10 minutes, normalized (first reading in the Ca2+-containing control = 100%)
Description: • Fig. 1: Time course of sperm motility in the CatSper modulation test. […] Sperm cells were exposed to a calcium-free buffer (grey curves) containing different concentrations of the exemplified CatSper inhibitor RU1968 at time t = 0 minutes up to t = 90 minutes. A control sample (black, HTF) was kept under Ca^2+-containing conditions. During a subsequent incubation at 37 °C, the motility in the sperm population was determined by light microscopy; the data was normalized (first reading in the Ca^2+-containing control = 100%).
The Ca^2+-containing solution being used in Figure 1 of the present invention corresponds to the HTF buffer (human tubular fluid) used for years in research with spermatozoa (Strünker et al. 2011, Nature 471, 382-386). The calcium-free solution is also based on this buffer. It is very likely that the test can also be carried out with buffer solutions of a different composition, as long as they are kept in the physiological range and comprise the herein mentioned ranges or values for calcium and magnesium. Table 1: Composition of the Ca2+-containing and the Ca2+-free solutions being used in the method of the present invention.
For performing a CatSper-Screening-Test, 178 µl of the calcium-free solution and 2 µl of the solvent used to prepare the test compound solution is used to produce the control solution (calcium-free solution without any test compound). A test solution is produced by adding 178 µl of the calcium-free solution and 2 µl of the test compound solution together. Optionally, another 180 µl of the calcium-containing solution (without any test compound) may further be used in another vial (see particular composition above in Tab. 1). The solutions are then stored at 4 °C and heated to 37 °C before use to warm up the solutions.
A spermatozoa (semen) sample is then obtained from a subject who is a healthy volunteer. A volume of 20 µl of the ejaculate is added to the calcium-free control, calcium-free test and calcium-containing solutions in each micro reaction tube. By low-speed vortex mixing or repeatedly inverting the micro reaction tubes, a homogeneous spermatozoa suspension is generated. Both micro reaction tubes are then incubated at 37 °C for 15 min. After incubation, the mixing step is repeated and the spermatozoa motility is determined for the conditions by counting a total number of 200 sperm cells. The fraction of motile sperm is then compared for the calcium-free control solution with and without any test compound. If a difference in the fraction of motile sperm is determined the test compound is identified as inhibitor / activator or no modulator of the CatSper activity.

| Structure (SMILES) | effect on CatSper ion channel activity in the CatSper-Screening-Test (10 µM, calcium-free solution, Fig. 1) | motility (3 µM inhibitor in Ca2+-free buffer, 37 °C, Fig. 2) | motility (6 µM inhibitor in Ca2+-free buffer, 37 °C, Fig. 2) | motility (12 µM inhibitor in Ca2+-free buffer, 37 °C, Fig. 2) | behaviour of sperm cells from healthy volunteers in the CatSper-Screening-Test (30 µM, calcium-free solution, Fig. 1) | sperm cell motility under essentially Ca2+-free conditions (different concentrations, t = 0 minutes up to t = 90 minutes, 37 °C, Fig. 2) |
| --- | --- | --- | --- | --- | --- | --- |
| CC(=O)[C@H]1CC[C@H]2[C@@H]3CCC4=CC(=O)CC[C@]4(C)[C@H]3CC[C@]12C [Progesterone, progesterone] | activates CatSper ion channel activity | – | – | – | – | – |
| C[C@@H](NCCN(C)C)[C@@H]1CC[C@@H]2[C@H]3CCc4cc(O)ccc4[C@@H]3CC[C@]21C [RU1968] | – | about 106% | ~110% | about 116% | behave in the same way as sperm from patients with CatSper dysfunction | modulates the sperm cell motility in a concentration-dependent manner |
